The source of these data is article PMC12867150, “A fungi-derived cyclic peptide enhances Th9-mediated antitumor immunity by targeting ZAP70 and SREBP1” (The Journal of Clinical Investigation, 2025).

Several values for one entry are separate records, joined by “and”; a condition that tells them apart may be missing. Equal entries are not always repeated.

This test relates to endogenous CD4+ T cells. The test is described as follows: Flow cytometry of endogenous CD4+ T cells in spleen, LN, tumor (Figure 2D-E, S1F-H). In kind it is in vivo, mouse. Particulars: for Frequencies of endogenous CD4⁺ T cells in LN: Supplemental Figure 1G left; for Number of endogenous CD4⁺ T cells in LN: Supplemental Figure 1G right; for CD4 gate number: representative flow plot; for endogenous CD4 T cells (%) / number of endogenous CD4 T cells: individual mice, n = 4. The procedure: C57BL/6 mice were subcutaneously injected with 5 × 10^5 B16-OVA melanoma cells. Five days after tumor implantation, mice received an intravenous infusion of 2 × 10^6 in vitro–differentiated Th9 cells (cultured for 5 days), which were derived from OT-II CD45.1 donor mice, accompanied by 4 × 10^5 OVA peptide–pulsed DCs via the tail vein. To enhance T cell engraftment and facilitate lymphodepletion, a single intraperitoneal injection of cyclophosphamide (200 mg/kg, Sigma, catalog C0768) was administered 1 day prior to T cell transfer. Mice were euthanized at designated time points for the collection and analysis of spleens, tumor-draining lymph nodes, and tumor tissues.
Details regarding staining panels (human and mouse), reagents (including clones and catalog numbers), acquisition settings, compensation/controls, and analysis procedures are provided in Supplemental Methods.
BioLegend, Cat. No. 422301 or Mouse TruStain FcX™, BioLegend, Cat. No. 101319) for 10 minutes at 4°C. For surface marker detection, cells were stained with fluorochrome-conjugated monoclonal antibodies in 96-well V-bottom plates and incubated on ice for 30 minutes. After staining, cells were washed twice and resuspended in FACS buffer for analysis.
Prior to intracellular cytokine staining, cells were restimulated for 4 hours with PMA (Absin, Cat. No. abs9107), ionomycin (Sigma-Aldrich, Cat. No. I0634), and brefeldin A (MedChemExpress, Cat. No. HY-16592). For intracellular cytokine staining, cells were first surface-stained as described above, then fixed and permeabilized using the BD Cytofix/Cytoperm™ kit (BD Biosciences, Cat. No. 554714) according to the manufacturer ’s protocol. Intracellular proteins were stained with directly conjugated antibodies targeting IL-9, IL-17a, IL-4, IFN-γ, TNF-α, FOXP3, p-ZAP70, Perforin, and […]
Antibodies used for mouse samples included those against IL-9 (PE, clone RM9A4, Biolegend, Cat. No. 514104), IFN-γ (PE, clone XMG1.2, Biolegend, Cat. No.
Cat. No. 103138), CD4 (APC/Cy7, clone E-AB-F1353UJ, Elabscience, Cat. No.
AF18028), CD8α (PerCP/Cy5.5, clone E-AB-F1104UJ, Elabscience, Cat. No. […]
clone E-AB-F1187UH, Elabscience, Cat. No. AF19854), TNF-α (BV421, clone MP6-XT22, Biolegend, Cat. No. 506328), FOXP3 (PE, clone FJK-16s, eBioscience, Cat. No.
Perforin (APC, clone S16009A, Biolegend, Cat. No. 154303) and Granzyme B (APC, […]
clone QA16A02, Biolegend, Cat. No. 372203). […]
Figure S1. EpA enhances immune responses. […]
I) Representative flow-cytometric plots of endogenous CD4⁺ and CD8⁺ T cells in spleens (F), LNs (G), and tumors (H); frequencies and absolute numbers of endogenous CD4⁺ (G) and CD8⁺ (I) T cells in LNs are quantified. (J and K) […]
Statistical analysis was performed using two-way ANOVA with Tukey’s post hoc test (A), one-way ANOVA with Tukey’s post hoc test (B) or two-tailed unpaired Student’s t-test (D and G–M). ns, not significant. *p < 0.05, **p < 0.01, ****p < 0.0001.
(also on this page, place not known: Mouse weight (g) CtrlEpA CtrlEpA CtrlEpA0 I CD45.1+ T cells (%) CtrlEpA CD4+ T cells (%) CtrlEpA CtrlEpA CtrlEpA FSC CD8 CD8 FSC FSC FSC BNumber of CD45.1+ T cells (×103 per mgĎ Number of CD4+ T cells (×104 per mgĎ DC (%)NK cells (%) NK cells (%) DC (%) Number of DC (×103 per mg) Number of NK cells (×105) Number of NK cells (×103 per mg) Number of DC (×105) FSC FSC FSC CD8 CtrlEpA CtrlEpA CtrlEpA CD8+ T cells (%) Number of CD8+ T cells (×104 per mgĎ nsns ns nsns ns 40 IL-6 (pg/ml)) […]

For anteiso-C15 Leu7 surfactin [EpA], the “Frequencies of endogenous CD4⁺ T cells in LN” value is 32.6 (LN, replicate 1); 26.4 (LN, replicate 2); 36 (LN, replicate 3); 26 (LN, replicate 4). Further, the “Number of endogenous CD4⁺ T cells in LN” value is 43261 (LN, replicate 1); 37630 (LN, replicate 2); 15416 (LN, replicate 3); 15595.7 (LN, replicate 4). The CD4 gate number was 36.0 (LN, Figure S1G); 26.1 (Spleen, Figure S1F); 15.2 (Tumor, Figure S1H). In addition, where the note is “spleens, lymph nodes, tumors, result in words”, the “endogenous CD4+ T cell frequency and number” value is “minimal changes”. Besides, the “endogenous CD4 T cells (%)” value runs as follows: (spleens) 30.3% and 32.9% and 35.5% and 26.1%; (tumors) 15.2% and 16.6% and 24% and 21.6%. In addition, the “number of endogenous CD4 T cells” value is, setting by setting: (spleens) 1093264 and 1018812 and 1081910 and 535955; (tumors) 158 and 294 and 393 and 62.
